Measured values as given in patent US7449476B2, “Tetrahydrocarboline antiviral agents” (priority 2004, dated 2008).

System: HIV-1
Experiment: Single-round infectious HIV-1 luciferase reporter virus infection of HeLa CD4 cells
Type: cell-based
Settings: Human immunodeficiency virus 1, HeLa, 72 h
Protocol: Cells: (virus production) human embryonic kidney cell line, 293, was propagated in Dulbecco's Modified Eagle Medium (Invitrogen, Carlsbad, Calif.) containing 10% fetal Bovine serum (FBS, Sigma, St. Louis, Mo.); (virus infection) human epithelial cell line, HeLa, expressing the HIV-1 receptor CD4 was propagated in Dulbecco's Modified Eagle Medium (Invitrogen, Carlsbad, Calif.) containing 10% fetal Bovine serum (FBS, Sigma, St. Louis, Mo.) and supplemented with 0.2 mg/mL Geneticin (Invitrogen, Carlsbad, Calif.).
Virus: single-round infectious reporter virus was produced by co-transfecting human embryonic kidney 293 cells with an HIV-1 envelope DNA expression vector and a proviral cDNA containing an envelope deletion mutation and the luciferase reporter gene inserted in place of HIV-1 nef sequences. Transfections were performed using lipofectAMINE PLUS reagent as described by the manufacturer (Invitrogen, Carlsbad, Calif.).
Experiment: HeLa CD4 cells were plated in 96 well plates at a cell density of 1×10^4 cells per well in 100 μl Dulbecco's Modified Eagle Medium containing 10% fetal Bovine serum and incubated overnight. Compound was added in a 2 μl dimethylsulfoxide solution, so that the final assay concentration would be ≦10 μM. Single-round infectious reporter virus (100 μL) in Dulbecco's Modified Eagle Medium was then added to the plated cells and compound at an approximate multiplicity of infection (MOI) of 0.01, resulting in a final volume of 200 μl per well. Virally-infected cells were incubated at 37 degrees Celsius, in a CO2 incubator, and harvested 72 h after infection. Viral infection was monitored by measuring luciferase expression from viral DNA in the infected cells using a luciferase reporter gene assay kit, as described by the manufacturer (Roche Molecular Biochemicals, Indianapolis, Ind.). Infected cell supernatants were removed and 50 μl of lysis buffer was added per well. After 15 minutes, 50 μl of freshly-reconstituted luciferase assay reagent was added per well. Luciferase activity was then quantified by measuring luminescence using a Wallac microbeta luminescence reader.
The percent inhibition for each compound was calculated by quantifying the level of luciferase expression in cells infected in the presence of each compound as a percentage of that observed for cells infected in the absence of compound and subtracting such a determined value from 100. The effective concentration for fifty percent inhibition (EC50) was calculated with Microsoft Excel Xlfit curve fitting software. For each compound, curves were generated from percent inhibition calculated at 10 different concentrations by using a four paramenter logistic model (model 205).

Row | SMILES | EC50
1 | COc1cnc(-n2ccnn2)c2[nH]cc(C(=O)C(=O)N3CCc4c(c5cc(F)ccc5n4-c4ccccc4)C3)c12 [Example 9, 1-(8-Fluoro-5-phenyl-1,3,4,5-tetrahydro-pyrido[4,3-b]indol-2-yl)-2-[4-methoxy-7-(1,2,3-triazol-1-yl)-6-azaindol-3-yl]-ethane-1,2-dione] | < 1 µM
2 | COc1cnc(-n2cnc(C)n2)c2[nH]cc(C(=O)C(=O)N3CCc4c(c5ccccc5n4-c4ccccc4)C3)c12 [Example 6, 1-(5-Phenyl-1,3,4,5-tetrahydro-pyrido[4,3-b]indol-2-yl)-2-[4-methoxy-7-(3-methyl-1,2,4-triazol-1-yl)-6-azaindol-3-yl]-ethane-1,2-dione] | < 1 µM
3 | COc1ncc(OC)c2c(C(=O)C(=O)N3CCc4c(c5ccccc5n4-c4ccccc4)C3)c[nH]c12 [Example 1, 1-(5-Phenyl-1,3,4,5-tetrahydro-pyrido[4,3-b]indol-2-yl)-2-(4,7-dimethoxy-6-azaindol-3-yl)-ethane-1,2-dione] | < 1 µM
4 | COc1cnc(-n2cnc(C)n2)c2[nH]cc(C(=O)C(=O)N3CCc4c(c5cc(F)ccc5n4-c4ccccc4)C3)c12 [Example 8, 1-(8-Fluoro-5-phenyl-1,3,4,5-tetrahydro-pyrido[4,3-b]indol-2-yl)-2-[4-methoxy-7-(3-methyl-1,2,4-triazol-1-yl)-6-azaindol-3-yl]-ethane-1,2-dione] | < 1 µM
5 | COc1ncc(OC)c2c(C(=O)C(=O)N3CCc4[nH]c5ccccc5c4C3)c[nH]c12 [Example 2, 1-(1,3,4,5-Tetrahydro-pyrido[4,3-b]indol-2-yl)-2-(4,7-dimethoxy-6-azaindol-3-yl)-ethane-1,2-dione] | > 5 µM
6 | COc1ncc(OC)c2c(C(=O)C(=O)N3CCc4c(c5cc(F)ccc5n4C)C3)c[nH]c12 [Example 4, 1-(8-Fluoro-5-methyl-1,3,4,5-tetrahydro-pyrido[4,3-b]indol-2-yl)-2-(4,7-dimethoxy-6-azaindol-3-yl)-ethane-1,2-dione] | < 1 µM
7 | COc1cnc(-n2ncnc2C)c2[nH]cc(C(=O)C(=O)N3CCc4c(c5ccccc5n4-c4ccccc4)C3)c12 [Example 7, 1-(5-Phenyl-1,3,4,5-tetrahydro-pyrido[4,3-b]indol-2-yl)-2-[4-methoxy-7-(5-methyl-1,2,4-triazol-1-yl)-6-azaindol-3-yl]-ethane-1,2-dione] | < 1 µM
8 | COc1ncc(OC)c2c(C(=O)C(=O)N3CCc4[nH]c5ccc(F)cc5c4C3)c[nH]c12 [Example 3, 1-(8-Fluoro-1,3,4,5-tetrahydro-pyrido[4,3-b]indol-2-yl)-2-(4,7-dimethoxy-6-azaindol-3-yl)-ethane-1,2-dione] | > 5 µM
9 | COc1ncc(OC)c2c(C(=O)C(=O)N3CCc4[nH]c5ccc(C(F)(F)F)cc5c4C3)c[nH]c12 [Example 5, 1-(8-Trifluoromethyl-1,3,4,5-tetrahydro-pyrido[4,3-b]indol-2-yl)-2-(4,7-dimethoxy-6-azaindol-3-yl)-ethane-1,2-dione] | 1 to 5 µM
